Molecular target: T1, quinoa 11S globulin (11S; chenopodin)
T1 construct: gene 11S globulin A; native, from defatted quinoa seed flour (seed origin Peru); alkaline extraction, pH 4.5 precipitation, size-exclusion FPLC; acidic (30-35 kDa) and basic (17-20 kDa) subunits disulfide-linked, about 55 kDa; isoform mixture not resolved; docking used amaranth 3qac as homologue
Test: isothermal titration calorimetry
Format: binding, Chenopodium quinoa
Details: distilled water pH 9, 25 °C, n 0.91
Source text: isothermal titration calorimetry on quinoa 11S globulin (11S; chenopodin)

Kd (protein 36.4 µM): 48.2 ± 1 µM
Ka (M^-1) (same titration as the Kd): (2.1 ± 0.3) × 10^4
SMILES: Oc1ccc(/C=C/c2cc(O)cc(O)c2)cc1 [RSV, 3,5,4′-trihydroxystilbene]

— PMC11434796, “An Innovative Bio-Vehicle for Resveratrol and Tocopherol Based on Quinoa 11S Globulin—Nanocomplex Design and Characterization” (Pharmaceutics, 2024)
